Test results as given in US20240228504A1, “SUBSTITUTED TRICYCLIC AMIDES, ANALOGUES THEREOF, AND METHODS USING SAME” (Arbutus Biopharma Corporation, priority 2020, published 2024).

Tested on: HBV rcDNA in HepDE19 cells
Assay: HepDE19 assay with bDNA quantitation of HBV rcDNA
Type: cell-based, hepatitis B virus
Conditions: Hepatitis B virus, HepDE19, HepDE19 assay, inhibition of rcDNA formation, bDNA quantitation; read-out: DE-19bDNA EC50

Compared with `CN(C(=O)c1cc2cc(F)c(F)cc2[nH]1)[C@@H]1COCc2c1c1cc(F)c(F)cc1c(=O)n2C` [Compound 240, (S)-N-(8,9-Difluoro-5-methyl-6-oxo-1,4,5,6-tetrahydro-2H-pyrano[3,4-c]isoquinolin-1-yl)-5,6-difluoro-N-methyl-1H-indole-2-carboxamide], `COc1nc2c(c3cc(F)c(F)cc13)[C@H](N(C)C(=O)c1cc3cc(F)c(F)cc3[nH]1)COC2` [Compound 241, (S)-N-(8,9-Difluoro-6-methoxy-1,4-dihydro-2H-pyrano[3,4-c]isoquinolin-1-yl)-5,6-difluoro-N-methyl-1H-indole-2-carboxamide] is 3-fold higher in EC50: 0.01 µM for the first, 0.03 µM for the second. The first is the more potent here.

Going from `CN(C(=O)c1cc2n(c1)CCCC2)[C@@H]1COCc2[nH]c(=O)c3cc(F)c(F)cc3c21` [Compound 242, (S)-N-(8,9-Difluoro-6-oxo-1,4,5,6-tetrahydro-2H-pyrano[3,4-c]isoquinolin-1-yl)-N-methyl-5,6,7,8-tetrahydroindolizine-2-carboxamide] to `CN(C(=O)c1cc2cccc(C(F)F)n2c1)[C@@H]1COCc2[nH]c(=O)c3cc(F)c(F)cc3c21` [Compound 266, (S)-N-(8,9-Difluoro-6-oxo-1,4,5,6-tetrahydro-2H-pyrano[3,4-c]isoquinolin-1-yl)-5-(difluoromethyl)-N-methylindolizine-2-carboxamide], the EC50 falls from 0.11 µM to 0.02 µM (5.5-fold).

Compared with `CN(C(=O)c1ccc(Br)c(F)c1F)[C@@H]1COCc2[nH]c(=O)c3cc(F)c(F)cc3c21` [Compound 244, (S)-4-Bromo-N-(8,9-difluoro-6-oxo-1,4,5,6-tetrahydro-2H-pyrano[3,4-c]isoquinolin-1-yl)-2,3-difluoro-N-methylbenzamide], `CN(C(=O)c1cc(F)c(Br)cc1F)[C@@H]1COCc2[nH]c(=O)c3cc(F)c(F)cc3c21` [Compound 245, (S)-4-Bromo-N-(8,9-difluoro-6-oxo-1,4,5,6-tetrahydro-2H-pyrano[3,4-c]isoquinolin-1-yl)-2,5-difluoro-N-methylbenzamide] is 2.1-fold higher in EC50: 0.08 µM for the first, 0.17 µM for the second. The first is the more potent here.

`CN(C(=O)c1c(F)cc(Br)cc1F)[C@@H]1COCc2[nH]c(=O)c3cc(F)c(F)cc3c21` [Compound 246, (S)-4-Bromo-N-(8,9-difluoro-6-oxo-1,4,5,6-tetrahydro-2H-pyrano[3,4-c]isoquinolin-1-yl)-2,6-difluoro-N-methylbenzamide] and `CN(C(=O)C1(O)Cc2cc(F)c(F)cc2C1)[C@@H]1COCc2[nH]c(=O)c3cc(F)c(F)cc3c21` [Compound 276, (S)-N-(8,9-Difluoro-6-oxo-1,4,5,6-tetrahydro-2H-pyrano[3,4-c]isoquinolin-1-yl)-5,6-difluoro-2-hydroxy-N-methyl-2,3-dihydro-1H-indene-2-carboxamide] are within 1.5-fold of each other in EC50: 1.96 µM for the first, 1.95 µM for the second.

Going from `CN(C(=O)c1ccc(C(F)(F)F)c(=O)[nH]1)[C@@H]1COCc2[nH]c(=O)c3cc(F)c(F)cc3c21` [Compound 247, (S)-N-(8,9-Difluoro-6-oxo-1,4,5,6-tetrahydro-2H-pyrano[3,4-c]isoquinolin-1-yl)-N-methyl-6-oxo-5-(trifluoromethyl)-1,6-dihydropyridine-2-carboxamide] to `CN(C(=O)c1cc2cc(C(F)(F)F)ncc2[nH]1)[C@@H]1COCc2[nH]c(=O)c3cc(F)c(F)cc3c21` [Compound 251, (S)-N-(8,9-difluoro-6-oxo-1,4,5,6-tetrahydro-2H-pyrano[3,4-c]isoquinolin-1-yl)-N-methyl-5-(trifluoromethyl)-1H-pyrrolo[2,3-c]pyridine-2-carboxamide], the EC50 falls from 3.87 µM to 0.23 µM (17-fold).

`CN(C(=O)c1ccc2ccccn12)[C@@H]1COCc2[nH]c(=O)c3cc(F)c(F)cc3c21` [Compound 248, (S)-N-(8,9-Difluoro-6-oxo-1,4,5,6-tetrahydro-2H-pyrano[3,4-c]isoquinolin-1-yl)-N-methylindolizine-3-carboxamide] and `CN(C(=O)c1ccn2ccccc12)[C@@H]1COCc2[nH]c(=O)c3cc(F)c(F)cc3c21` [Compound 261, (S)-N-(8,9-Difluoro-6-oxo-1,4,5,6-tetrahydro-2H-pyrano[3,4-c]isoquinolin-1-yl)-N-methylindolizine-1-carboxamide] are within 1.5-fold of each other in EC50: 5.38 µM for the first, 6.4 µM for the second.

Compared with `CN(C(=O)c1ccc(-c2ccc(F)cc2)cc1)[C@@H]1COCc2[nH]c(=O)c3cc(F)c(F)cc3c21` [Compound 250, (S)-N-(8,9-Difluoro-6-oxo-1,4,5,6-tetrahydro-2H-pyrano[3,4-c]isoquinolin-1-yl)-4′-fluoro-N-methyl-[1,1′-biphenyl]-4-carboxamide], `CN(C(=O)c1ccc(-c2cccc(F)c2)cc1)[C@@H]1COCc2[nH]c(=O)c3cc(F)c(F)cc3c21` [Compound 283, (S)-N-(8,9-Difluoro-6-oxo-1,4,5,6-tetrahydro-2H-pyrano[3,4-c]isoquinolin-1-yl)-3′-fluoro-N-methyl-[1,1′-biphenyl]-4-carboxamide] is 1.7-fold lower in EC50: 8.1 µM for the first, 4.7 µM for the second.

`CN(C(=O)C(F)(F)c1cccc(Br)c1)[C@@H]1COCc2[nH]c(=O)c3cc(F)c(F)cc3c21` [Compound 252, (S)-2-(3-Bromophenyl)-N-(8,9-difluoro-6-oxo-1,4,5,6-tetrahydro-2H-pyrano[3,4-c]isoquinolin-1-yl)-2,2-difluoro-N-methylacetamide] and `CN(C(=O)C(F)(F)c1ccc(Br)cc1)[C@@H]1COCc2[nH]c(=O)c3cc(F)c(F)cc3c21` [Compound 253, (S)-2-(4-Bromophenyl)-N-(8,9-difluoro-6-oxo-1,4,5,6-tetrahydro-2H-pyrano[3,4-c]isoquinolin-1-yl)-2,2-difluoro-N-methylacetamide] are within 1.5-fold of each other in EC50: 7.7 µM for the first, 8 µM for the second.

First: CN(C(=O)c1cc2c(C(F)F)c(F)ccc2[nH]1)[C@@H]1COCc2[nH]c(=O)c3cc(F)c(F)cc3c21 [Compound 254, (S)-N-(8,9-Difluoro-6-oxo-1,4,5,6-tetrahydro-2H-pyrano[3,4-c]isoquinolin-1-yl)-4-(difluoromethyl)-5-fluoro-N-methyl-1H-indole-2-carboxamide]
Second: CN(C(=O)c1cc2sccc2[nH]1)[C@@H]1COCc2[nH]c(=O)c3cc(F)c(F)cc3c21 [Compound 278, (S)-N-(8,9-Difluoro-6-oxo-1,4,5,6-tetrahydro-2H-pyrano[3,4-c]isoquinolin-1-yl)-N-methyl-4H-thieno[3,2-b]pyrrole-5-carboxamide]
The EC50 of the first is 2-fold lower: 0.01 µM for the first, 0.02 µM for the second. The first is the more potent here.

`CN(C(=O)c1ccc(-c2ccc(F)cc2)c(F)c1)[C@@H]1COCc2[nH]c(=O)c3cc(F)c(F)cc3c21` [Compound 262, (S)-N-(8,9-Difluoro-6-oxo-1,4,5,6-tetrahydro-2H-pyrano[3,4-c]isoquinolin-1-yl)-2,4′-difluoro-N-methyl-[1,1′-biphenyl]-4-carboxamide] and `CN(C(=O)c1ccc(-c2ccccc2F)cc1)[C@@H]1COCc2[nH]c(=O)c3cc(F)c(F)cc3c21` [Compound 285, (S)-N-(8,9-Difluoro-6-oxo-1,4,5,6-tetrahydro-2H-pyrano[3,4-c]isoquinolin-1-yl)-2′-fluoro-N-methyl-[1,1′-biphenyl]-4-carboxamide] are within 1.5-fold of each other in EC50: 17.2 µM for the first, 19.7 µM for the second.

Going from `CN(C(=O)c1cc(-c2ccc(F)cc2)on1)[C@@H]1COCc2[nH]c(=O)c3cc(F)c(F)cc3c21` [Compound 263, (S)-N-(8,9-Difluoro-6-oxo-1,4,5,6-tetrahydro-2H-pyrano[3,4-c]isoquinolin-1-yl)-5-(4-fluorophenyl)-N-methylisoxazole-3-carboxamide] to `CN(C(=O)C1Cc2ccc(F)cc21)[C@@H]1COCc2[nH]c(=O)c3cc(F)c(F)cc3c21` (stereo partly drawn) [Compound 279, N-((S)-8,9-Difluoro-6-oxo-1,4,5,6-tetrahydro-2H-pyrano[3,4-c]isoquinolin-1-yl)-4-fluoro-N-methylbicyclo[4.2.0]octa-1(6),2,4-triene-7-carboxamide], the EC50 falls from 14.7 µM to 9.5 µM (1.5-fold).

Going from `CN(C(=O)c1cc2nc(Br)ccc2[nH]1)[C@@H]1COCc2[nH]c(=O)c3cc(F)c(F)cc3c21` [Compound 268, (S)-5-Bromo-N-(8,9-difluoro-6-oxo-1,4,5,6-tetrahydro-2H-pyrano[3,4-c]isoquinolin-1-yl)-N-methyl-1H-pyrrolo[3,2-b]pyridine-2-carboxamide] to `Cc1cc2ccc(C(=O)N(C)[C@@H]3COCc4[nH]c(=O)c5cc(F)c(F)cc5c43)cn2c1` [Compound 277, (S)-N-(8,9-Difluoro-6-oxo-1,4,5,6-tetrahydro-2H-pyrano[3,4-c]isoquinolin-1-yl)-N,2-dimethylindolizine-6-carboxamide], the EC50 falls from 1.8 µM to 0.42 µM (4.3-fold). The second is the more potent here.

Going from `CN(C(=O)C1Cc2ccccc21)[C@@H]1COCc2[nH]c(=O)c3cc(F)c(F)cc3c21` (stereo partly drawn) [Compound 269, N-((S)-8,9-Difluoro-6-oxo-1,4,5,6-tetrahydro-2H-pyrano[3,4-c]isoquinolin-1-yl)-N-methylbicyclo[4.2.0]octa-1(6),2,4-triene-7-carboxamide] to `CN(C(=O)C1(O)Cc2ccccc2C1)[C@@H]1COCc2[nH]c(=O)c3cc(F)c(F)cc3c21` [Compound 275, (S)-N-(8,9-Difluoro-6-oxo-1,4,5,6-tetrahydro-2H-pyrano[3,4-c]isoquinolin-1-yl)-2-hydroxy-N-methyl-2,3-dihydro-1H-indene-2-carboxamide], the EC50 falls from 18.6 µM to 3.84 µM (4.8-fold). The second is the more potent here.

Going from `CN(C(=O)c1cc2cc(F)c(F)cc2[nH]1)[C@@H]1COCc2nc(OCCN)c3cc(F)c(F)cc3c21` [Compound 280, (S)-N-(6-(2-aminoethoxy)-8,9-difluoro-1,4-dihydro-2H-pyrano[3,4-c]isoquinolin-1-yl)-5,6-difluoro-N-methyl-1H-indole-2-carboxamide] to `CN(C(=O)C1CN(c2ccsc2)C1)[C@@H]1COCc2[nH]c(=O)c3cc(F)c(F)cc3c21` [Compound 282, (S)-N-(8,9-Difluoro-6-oxo-1,4,5,6-tetrahydro-2H-pyrano[3,4-c]isoquinolin-1-yl)-N-methyl-1-(thiophen-3-yl)azetidine-3-carboxamide], the EC50 rises from 0.02 µM to 0.29 µM (14-fold). The first is the more potent here.

`CN(C(=O)C1CN(c2cscc2Br)C1)[C@@H]1COCc2[nH]c(=O)c3cc(F)c(F)cc3c21` [Compound 284, (S)-1-(4-Bromothiophen-3-yl)-N-(8,9-difluoro-6-oxo-1,4,5,6-tetrahydro-2H-pyrano[3,4-c]isoquinolin-1-yl)-N-methylazetidine-3-carboxamide] showed an EC50 of 0.05 µM.
